Test results reported in patent publication US11547681B2, “N-acylethanolamide derivatives and uses thereof” (ELIEM THERAPEUTICS, INC., priority 2016, dated 2023).
Blank lines part the entries; values can stand above or below the compound they belong to.

Experiment: in vitro
Conditions: for Concentration (μM) of analyte PEA, 0 min / Concentration (μM) of analyte PEA, 10 min / Concentration (μM) of analyte PEA, 20 min / Concentration (μM) of analyte PEA, 30 min / Concentration (μM) of analyte PEA, 60 min / % Remaining of Initial (n = 1), 0 min / % Remaining of Initial (n = 1), 10 min / % Remaining of Initial (n = 1), 20 min / % Remaining of Initial (n = 1), 30 min / % Remaining of Initial (n = 1), 60 min: 1 μM; for % Remaining of Initial (n = 1), 0 min: s9, 0 h; for % Remaining of Initial (n = 1), 10 min: s9, 10 min; for % Remaining of Initial (n = 1), 20 min: s9, 20 min; for % Remaining of Initial (n = 1), 30 min: s9, 0.5 h; for % Remaining of Initial (n = 1), 60 min: s9, 1 h; for half-life at 1 μM: s9, Half-life (min)
Method in brief: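 Test article (1 µM final) was pre-equilibrated at 37 °C in S9 reaction mixture, then the cofactor cocktail was added to start the reaction. Samples taken at 0, 10, 20, 30 and 60 min were quenched in cold acidified acetonitrile. LC-MS/MS tracked prodrug and released PEA, and half-lives came from single-phase exponential decay fits.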

- Concentration (μM) of analyte PEA, 0 min (both, human): 0.35 µM
- Concentration (μM) of analyte PEA, 10 min (both, human): 0.30 µM
- Concentration (μM) of analyte PEA, 20 min (both, human): 0.18 µM
- Concentration (μM) of analyte PEA, 30 min (both, human): 0.088 µM
- Concentration (μM) of analyte PEA, 60 min (both, human): 0.028 µM
- % Remaining of Initial (n = 1), 0 min (both, human): 100%
- % Remaining of Initial (n = 1), 10 min (both, human): <1.0%
- % Remaining of Initial (n = 1), 20 min (both, human): <1.0%
- % Remaining of Initial (n = 1), 30 min (both, human): <1.0%
- % Remaining of Initial (n = 1), 60 min (both, human): <1.0%
- half-life at 1 μM (both, human): < 1 min
- Concentration (μM) of analyte PEA, 0 min (male, Beagle, dog): 0.32 µM
- Concentration (μM) of analyte PEA, 10 min (male, Beagle, dog): 0.29 µM
- Concentration (μM) of analyte PEA, 20 min (male, Beagle, dog): 0.21 µM
- Concentration (μM) of analyte PEA, 30 min (male, Beagle, dog): 0.18 µM
- Concentration (μM) of analyte PEA, 60 min (male, Beagle, dog): 0.078 µM
- % Remaining of Initial (n = 1), 0 min (male, Beagle, dog): 100%
- % Remaining of Initial (n = 1), 10 min (male, Beagle, dog): <1.0%
- % Remaining of Initial (n = 1), 20 min (male, Beagle, dog): <1.0%
- % Remaining of Initial (n = 1), 30 min (male, Beagle, dog): <1.0%
- % Remaining of Initial (n = 1), 60 min (male, Beagle, dog): <1.0%
- half-life at 1 μM (male, Beagle, dog): < 1 min
- Concentration (μM) of analyte PEA, 0 min (male, CD-1, mouse): 0.52 µM
- Concentration (μM) of analyte PEA, 10 min (male, CD-1, mouse): 0.23 µM
- Concentration (μM) of analyte PEA, 20 min (male, CD-1, mouse): 0.13 µM
- Concentration (μM) of analyte PEA, 30 min (male, CD-1, mouse): 0.077 µM
- Concentration (μM) of analyte PEA, 60 min (male, CD-1, mouse): 0.022 µM
- % Remaining of Initial (n = 1), 0 min (male, CD-1, mouse): 100%
- % Remaining of Initial (n = 1), 10 min (male, CD-1, mouse): <1.0%
- % Remaining of Initial (n = 1), 20 min (male, CD-1, mouse): <1.0%
- % Remaining of Initial (n = 1), 30 min (male, CD-1, mouse): <1.0%
- % Remaining of Initial (n = 1), 60 min (male, CD-1, mouse): <1.0%
- half-life at 1 μM (male, CD-1, mouse): < 1 min
- Concentration (μM) of analyte PEA, 0 min (male, Sprague-Dawley, rat): 0.20 µM
- Concentration (μM) of analyte PEA, 10 min (male, Sprague-Dawley, rat): 0.31 µM
- Concentration (μM) of analyte PEA, 20 min (male, Sprague-Dawley, rat): 0.18 µM
- Concentration (μM) of analyte PEA, 30 min (male, Sprague-Dawley, rat): 0.11 µM
- Concentration (μM) of analyte PEA, 60 min (male, Sprague-Dawley, rat): 0.029 µM
- % Remaining of Initial (n = 1), 0 min (male, Sprague-Dawley, rat): 100%
- % Remaining of Initial (n = 1), 10 min (male, Sprague-Dawley, rat): 13%
- % Remaining of Initial (n = 1), 20 min (male, Sprague-Dawley, rat): 2.1%
- % Remaining of Initial (n = 1), 30 min (male, Sprague-Dawley, rat): <1.0%
- % Remaining of Initial (n = 1), 60 min (male, Sprague-Dawley, rat): <1.0%
SMILES: CCCCCCCCCCCCCCCC(=O)NCCOC(=O)CCC(=O)OCC(O)CO (stereo not shown) [Compound I-9]

- Concentration (μM) of analyte PEA, 0 min (both, human): 0.047 µM
- Concentration (μM) of analyte PEA, 10 min (both, human): 0.25 µM
- Concentration (μM) of analyte PEA, 20 min (both, human): 0.18 µM
- Concentration (μM) of analyte PEA, 30 min (both, human): 0.14 µM
- Concentration (μM) of analyte PEA, 60 min (both, human): 0.033 µM
- % Remaining of Initial (n = 1), 0 min (both, human): 100%
- % Remaining of Initial (n = 1), 10 min (both, human): 2.8%
- % Remaining of Initial (n = 1), 20 min (both, human): <1.0%
- % Remaining of Initial (n = 1), 30 min (both, human): <1.0%
- % Remaining of Initial (n = 1), 60 min (both, human): <1.0%
- Concentration (μM) of analyte PEA, 0 min (male, Beagle, dog): 0.069 µM
- Concentration (μM) of analyte PEA, 10 min (male, Beagle, dog): 0.51 µM
- Concentration (μM) of analyte PEA, 20 min (male, Beagle, dog): 0.34 µM
- Concentration (μM) of analyte PEA, 30 min (male, Beagle, dog): 0.29 µM
- Concentration (μM) of analyte PEA, 60 min (male, Beagle, dog): 0.13 µM
- % Remaining of Initial (n = 1), 0 min (male, Beagle, dog): 100%
- % Remaining of Initial (n = 1), 10 min (male, Beagle, dog): 4.6%
- % Remaining of Initial (n = 1), 20 min (male, Beagle, dog): 1.6%
- % Remaining of Initial (n = 1), 30 min (male, Beagle, dog): <1.0%
- % Remaining of Initial (n = 1), 60 min (male, Beagle, dog): <1.0%
- Concentration (μM) of analyte PEA, 0 min (male, CD-1, mouse): 0.18 µM
- Concentration (μM) of analyte PEA, 10 min (male, CD-1, mouse): 0.24 µM
- Concentration (μM) of analyte PEA, 20 min (male, CD-1, mouse): 0.13 µM
- Concentration (μM) of analyte PEA, 30 min (male, CD-1, mouse): 0.083 µM
- Concentration (μM) of analyte PEA, 60 min (male, CD-1, mouse): 0.015 µM
- % Remaining of Initial (n = 1), 0 min (male, CD-1, mouse): 100%
- % Remaining of Initial (n = 1), 10 min (male, CD-1, mouse): <1.0%
- % Remaining of Initial (n = 1), 20 min (male, CD-1, mouse): <1.0%
- % Remaining of Initial (n = 1), 30 min (male, CD-1, mouse): <1.0%
- % Remaining of Initial (n = 1), 60 min (male, CD-1, mouse): <1.0%
- half-life at 1 μM (male, CD-1, mouse): < 1 min
- Concentration (μM) of analyte PEA, 0 min (male, Sprague-Dawley, rat): 0 µM
- Concentration (μM) of analyte PEA, 10 min (male, Sprague-Dawley, rat): 0.14 µM
- Concentration (μM) of analyte PEA, 20 min (male, Sprague-Dawley, rat): 0.091 µM
- Concentration (μM) of analyte PEA, 30 min (male, Sprague-Dawley, rat): 0.059 µM
- Concentration (μM) of analyte PEA, 60 min (male, Sprague-Dawley, rat): 0.0062 µM
- % Remaining of Initial (n = 1), 0 min (male, Sprague-Dawley, rat): 100%
- % Remaining of Initial (n = 1), 10 min (male, Sprague-Dawley, rat): <1.0%
- % Remaining of Initial (n = 1), 20 min (male, Sprague-Dawley, rat): <1.0%
- % Remaining of Initial (n = 1), 30 min (male, Sprague-Dawley, rat): <1.0%
- % Remaining of Initial (n = 1), 60 min (male, Sprague-Dawley, rat): <1.0%
- half-life at 1 μM (male, Sprague-Dawley, rat): < 1 min
SMILES: CCCCCCCCCCCCCCCC(=O)NCCOC(=O)CCC(=O)OCC(COC(=O)CCC)OC(=O)CCC (stereo not shown) [Compound I-11]
